Some results are limits rather than exact numbers.

What all share (format): physicochemical
Data set [1] in a line: Physical stability on storage in serum crimp vials. Conditions: up to 4 weeks; for physical stability: 5° C. sealed, 25° C./60% RH open, 40° C. sealed, 40° C./75% RH open, 60° C. sealed, 80° C. sealed. The method, then:
The crystalline L-proline co-crystal of the compound of formula (I-X) was tested for physical stability by storing about 10 mg of the co-crystal in 10 mL serum crimp vials, under following conditions: (a) 5° C., sealed; (b) 25° C./60% RH, open; (c) 40° C., sealed; (d) 40° C./75% RH, open; (e) 60° C., sealed; and (f) 80° C., sealed; with stability data collected at 1 day, 1 week, 2 weeks and 4 weeks.
The crystalline citric acid co-crystal of the compound of formula (I-X) was similarly tested for physical stability by storing about 10 mg of the co-crystal in […], under following conditions: (a) 5° C., sealed; (b) 25° C./60% RH, open; (c) 40° C., sealed; (d) 40° C./75% RH, open; (e) 60° C., sealed; and (f) 80° C., sealed; with stability data collected at 1 day, 1 week, 2 weeks and 4 weeks.

Data set [2] can be described thus: Chemical stability/degradation of stored samples by HPLC. Conditions: 1 week. The method, then: Samples of the crystalline L-proline co-crystal of the compound of formula (I-X) being tested for physical stability, sampled at 1 day, 1 week, 2 weeks and 4 weeks, were further tested for chemical stability/degradation. Crystalline L-proline co-crystal of the compound of formula (I-X) (˜10 mg) was diluted with a 50:50 water:acetonitrile solution (10 mL), and then further diluted 10 fold for HPLC measurements.
Samples of the crystalline citric acid co-crystal of the compound of formula (I-X) being tested for physical stability, sampled at 1 day, 1 week, 2 weeks and 4 weeks, were further tested for chemical stability/degradation. Crystalline citric acid co-crystal of the compound of formula (I-X) (˜10 mg) was diluted with a 50:50 water:acetonitrile solution (10 mL), and then further diluted 10 fold for HPLC measurements.

The nature of data set [3]: Dynamic vapor sorption/desorption (DVS). Conditions: for hygroscopicity: 0% RH to 90% RH, 2 full cycles; for form conversion by pXRD after the DVS run: isolated at 0% RH. The method, then:
DVS: Moisture sorption was characterized on a DVS-1 Instrument (Surface Measurement Systems, Allentown, Pa.). In each case, the sample was subject to a drying curve from ambient to 0% relative humidity (RH), followed by two cycles of sorption (from 0% RH to 90% RH) and desorption (from 90% RH to 0% RH) in 10% RH steps at 25° C. At each step the sample was allowed to equilibrate at a specific % RH and thus, stabilize in terms of weight gained or lost prior to the instrument moving to the next step within the method.
The crystalline L-proline co-crystal of the compound of formula (I-X) was further characterized using Dynamic Vapor Sorption (DVS), measuring from 0% RH to 90% RH (2 full cycles) at 25° C.
The crystalline citric acid co-crystal of the compound of formula (I-X) was further characterized using Dynamic Vapor Sorption (DVS), measuring from 0% RH to 90% RH (2 full cycles) at 25° C.

Setting [4] is: 25° C./60% RH open and 60° C. sealed, 2 week and 4 week samples.
Setting [5] is: 40° C./75% RH open and 80° C. sealed, 2 week and 4 week samples.
Where [6] appears, read: all six storage conditions, 1 day, 2 weeks and 4 weeks.

For the molecule `Cc1ccc([C@@H]2O[C@H](CO)[C@@H](O)[C@H](O)[C@H]2O)cc1Cc1ccc(-c2ccc(F)cc2)s1` [crystalline citric acid co-crystal of the compound of formul] [(2S,3R,4R,5S,6R)-2-(3-((5-(4-fluorophenyl)thiophen-2-yl)methyl)-4-methylphenyl)-6-(hydroxymethyl)tetrahydro-2H-pyran-3,4,5-triol], the physical stability entry in data set [1] was “physically stable”. Besides, the “degradation on a peak basis” value in data set [1] (stored at 25° C./60% RH, 40° C./75% RH, 60° C. or 80° C.) is below 0.3%. In addition, in data set [2] (setting [4]), the “degradation peaks (HPLC)” value is reported as “A small degradation peak was observed” and the “peak purity (HPLC)” value is listed as above 99%. For the same molecule, in data set [2] (setting [5]), the “degradation peaks (HPLC)” value was “A few small degradation peaks were also observed” and the “peak purity (HPLC)” value is above 99%. The “chemical stability (HPLC)” value in data set [2] (stored at 5° C. sealed and 40° C. sealed, 1 day, 2 weeks and 4 weeks) was “chemically stable”. For the same molecule, in data set [3] (25° C.), the hygroscopicity result is reported as “non-hygroscopic”. Besides, the increase in mass in data set [3] (0%-80% RH, 25° C., lost again on desorption) is on record as 0.5%. The “form conversion by pXRD after the DVS run” value in data set [3] is reported as “no form conversion”.

`Cc1ccc([C@@H]2O[C@H](CO)[C@@H](O)[C@H](O)[C@H]2O)cc1Cc1ccc(-c2ccc(F)cc2)s1` [crystalline L-proline co-crystal of the compound of formula ] [(2S,3R,4R,5S,6R)-2-(3-((5-(4-fluorophenyl)thiophen-2-yl)methyl)-4-methylphenyl)-6-(hydroxymethyl)tetrahydro-2H-pyran-3,4,5-triol]: the physical stability entry in data set [1] was “physically stable”. In data set [1] (all six storage conditions), the visible color changes result is “no visible color changes”. In data set [2] (setting [6]), the “chemical stability (HPLC)” value is given as “chemically stable” and the “degradation peaks (HPLC)” value is given as “No degradation peaks were observed”. Also, the hygroscopicity result in data set [3] (25° C.) is reported as “hygroscopic”. Besides, in data set [3] (between 40% RH and 90% RH, 25° C., lost on desorption with some hysteresis), the mass gain came out at 12%. For the same molecule, the “form conversion by pXRD after the DVS run” value in data set [3] was “no irreversible form conversion”. Also, in data set [3] (until % RH reached 40%, 25° C.), the weight gain entry is given as “no weight gain was observed”.

The values above are taken from patent publication US9035044B2, “L-proline and citric acid co-crystals of (2S, 3R, 4R, 5S,6R)-2-(3-((5-(4-fluorophenyl)thiopen-2-yl)methyl)4-methylphenyl)-6-(hydroxymethyl)tetrahydro-2H-pyran-3,4,5-triol” (Janssen Pharmaceutica NV, priority 2011, dated 2015).
